Data taken from patent publication US10774111B2, “Opioid peptide” (Embrapa—Empresa Brasileira de Pesquisa Agropecuária, priority 2014, dated 2020).
Ends that are not written are not given here.

Tests used:
Swiss mice [1] = experiment: Hot Plate nociception test in mice; assay type: in vivo, Mus musculus; conditions: i.p. in mice, dose based on dose and molarity of morphine 10 mg/kg (Leu-enkephalin 19.3 mg/kg), followed 120-240 min
Description: (§1) In vivo analyzes: Tests were carried out on Swiss mice of the Mus musculus species, in which nociception tests (Hot Plate and Tail Flick) were used according to Le Bars et al. (2001). Injections were administered via intraperitoneal (IP). Doses were based upon dose and molaridade of the morphine (10 mg/kg animal).
To initiate the nociceptive tests and verify the efficiency of the same, a pilot experiment was carried out using the peptide sequence SEQ ID NO: 2 and evaluating the behavior of the animals in the course of two hours.

Swiss mice [2] = experiment: Tail Flick nociception test in mice; assay type: in vivo, Mus musculus; conditions: i.p. in mice, 240 min
Description: as §1

immobilized pepsin = immobilized pepsin (Homo sapiens, UniProt P0DJD8); conditions: 4 hours, 37° C., 1400 RPM
Description: Digestion of the immobilized pepsin precursor: the peptide sequence SEQ ID NO: 6 was digested using immobilized pepsin for a period of 4 hours at 37° C. under agitation of 1400 RPM evaluating the fragmentation index at the times of 15 minutes, 30 minutes, 2 hours and 4 hours.
The peptide sequence SEQ ID NO: 6 was digested using immobilized pepsin for a period of 4 hours, evaluating the fragmentation index at the times of 15 minutes, 30 minutes, 2 hours and 4 hours.
Enkephalin (Leu) was digested using immobilized pepsin for a period of 4 hours, evaluating the fragmentation index at the times of 30 minutes, 1 hour, 2 hours and 4 hours.

trypsin = conditions: incubation with trypsin enzyme (enzymes present in the gastrointestinal tract), in vitro
Description: FIG. 11—Representation of the fragments obtained at the different incubation times with the enzyme trypsin. Analysis performed by mass spectrometry, MALDI. The first spectrum, marked with the letter A, refers to the time of 15 minutes; the second spectrum marked with the letter B indicates the time of 30 minutes; C indicates the time of 2 hour2; D indicates the time of 4 hours; and, finally, E is the control peptide (SEQ ID NO: 6).
FIG. 12—Representation of the fragments obtained at the different incubation times with the enzyme trypsin. Analysis performed by mass spectrometry, MALDI.
By means of this experiment it was possible to try to observe the in vitro peptide digestion by the enzyme present in the organism.

Sequence of immobilized pepsin (P0DJD8 63-388): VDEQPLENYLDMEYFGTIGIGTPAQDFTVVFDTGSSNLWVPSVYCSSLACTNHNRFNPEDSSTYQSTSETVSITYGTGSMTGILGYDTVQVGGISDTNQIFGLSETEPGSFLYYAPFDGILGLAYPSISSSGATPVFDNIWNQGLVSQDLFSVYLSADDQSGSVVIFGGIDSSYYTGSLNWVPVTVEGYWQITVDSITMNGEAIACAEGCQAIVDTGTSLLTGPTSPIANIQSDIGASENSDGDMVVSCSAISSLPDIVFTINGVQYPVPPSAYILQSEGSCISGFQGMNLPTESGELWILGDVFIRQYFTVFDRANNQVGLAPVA

With “SEQ ID NO: 4: synthetic opioid peptide of the formula TyrGlyGly-X1-X2-X3-X4; sequence not printed in the text (YGGTTGT)” the “antinociceptive (opioid) activity, latency index” value (Swiss mice [1]) was “antinociception activity” and the “antinociceptive activity, latency index” value (Swiss mice [2]) was “antinociception activity”.

With YGGTAGAHGTY [SEQ ID NO: 6] the “fragmentation index (precursor ion and lower mass ions over time)” value (immobilized pepsin) was “increase in the intensity of the lower mass ions over time and the decrease of the precursor ion” and the “intensity of the major peak during incubation” value (trypsin) was “reducing”.

In the case of “SEQ ID NO: 2: synthetic opioid peptide of the formula TyrGlyGly-X1-X2-X3-X4; sequence not printed in the text (YGGTGAH)”, the “antinociceptive (opioid) activity, latency index” value (Swiss mice [1]) was “delayed and prolonged activity”.

For “SEQ ID NO: 3: synthetic opioid peptide of the formula TyrGlyGly-X1-X2-X3-X4; sequence not printed in the text (YGGEGVQ)”, the “antinociceptive (opioid) activity, latency index” value (Swiss mice [1]) was “possible to visualize the activity” and the “antinociceptive activity, latency index” value (Swiss mice [2]) was “possible to visualize the activity”.

“SEQ ID NO: 5: synthetic opioid peptide of the formula TyrGlyGly-X1-X2-X3-X4; sequence not printed in the text (YGGEGEQ)” was tested, and the “antinociceptive (opioid) activity, latency index” value (Swiss mice [1]) was “antinociceptive” and the “antinociceptive activity, latency index” value (Swiss mice [2]) was “antinociceptive”.

With CC(C)C[C@H](NC(=O)[C@H](Cc1ccccc1)NC(=O)CNC(=O)CNC(=O)[C@@H](N)Cc1ccc(O)cc1)C(=O)O [Leu-enkephalin, reference compound] the “intensity of the major peak during incubation” value (trypsin) was “reducing”.
